# Columns and labels:
# Test in all cases: relative viability (nuclei count vs DMSO), 5 days (fraction); higher = more cells survive
# [1] = compound: CC[C@@H](C)CNCC(=O)N1CCC2=C([C@@H]1COC3=CC=CC(=C3)C)C=CS2 [RU-SKI 43] + CC(=O)Nc1cccc(-n2c(=O)n(C3CC3)c(=O)c3c(Nc4ccc(I)cc4F)n(C)c(=O)c(C)c32)c1 [Trametinib] (partner 0.02 µM)
# Procedure, shortened: (§1)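 Relative viability divides the nuclei count in treated wells by that in vehicle wells. Lung cancer cell lines were seeded in 1536-well plates, dosed by pin tool the next day, and fixed and stained after 5 days in one step with final 0.05% Triton X-100, 1% formaldehyde and 1 ug/ml Hoechst. Dosing was a single drug or a fixed anchor-drug dose plus five library-drug doses (not always all listed) in √10 steps, and values are medians of duplicate plates imaged at 4×.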
# [2] = compound: CC[C@@H](C)CNCC(=O)N1CCC2=C([C@@H]1COC3=CC=CC(=C3)C)C=CS2 [RU-SKI 43] + Nc1nc2[nH]cc(CCc3ccc(C(=O)N[C@@H](CCC(=O)O)C(=O)O)cc3)c2c(=O)[nH]1 [Pemetrexed] (partner 0.2 µM)
# Procedure, shortened: as §1
# [3] = compound: CCc1c2c(nc3ccc(OC(=O)N4CCC(N5CCCCC5)CC4)cc13)-c1cc3c(c(=O)n1C2)COC(=O)[C@]3(O)CC [Irinotecan] + CCNC(=O)c1noc(-c2cc(C(C)C)c(O)cc2O)c1-c1ccc(CN2CCOCC2)cc1 [Luminespib] (partner 0.01 µM)
# Procedure, shortened: as §1
# [4] = compound: CCc1c2c(nc3ccc(OC(=O)N4CCC(N5CCCCC5)CC4)cc13)-c1cc3c(c(=O)n1C2)COC(=O)[C@]3(O)CC [Irinotecan] + NC(=O)Nc1cc(-c2cccc(F)c2)sc1C(=O)N[C@H]1CCCNC1 [AZD7762] (partner 0.2 µM)
# Procedure, shortened: as §1
Cell Line,relative viability ([1]; first compound 0.1 µM),relative viability ([1]; first compound 0.3162 µM),relative viability ([1]; first compound 1 µM),relative viability ([1]; first compound 3.162 µM),relative viability ([1]; first compound 10 µM),relative viability ([2]; first compound 0.1 µM),relative viability ([2]; first compound 0.3162 µM),relative viability ([2]; first compound 1 µM),relative viability ([2]; first compound 3.162 µM),relative viability ([2]; first compound 10 µM),relative viability ([3]; first compound 2 µM),relative viability ([3]; first compound 6.325 µM),relative viability ([3]; first compound 20 µM),relative viability ([4]; first compound 0.6325 µM),relative viability ([4]; first compound 2 µM),relative viability ([4]; first compound 6.325 µM),relative viability ([4]; first compound 20 µM),relative viability ([3]; first compound 0.6325 µM)
NCI-H522,0.862,0.723,0.675,0.883,0.715,1.26,0.966,1.18,1.02,1.16,0.645,0.468,0.495,0.635,0.746,0.571,0.555,
NCI-H358,0.125,0.138,0.181,0.139,0.124,0.169,0.189,0.17,0.176,0.176,0.152,0.151,0.143,0.38,0.508,0.339,0.349,0.285
NCI-H1755,0.751,0.866,0.839,0.833,0.768,0.374,0.466,0.378,0.377,0.637,0.415,0.299,0.241,0.53,0.47,0.345,0.327,0.433
LCLC-103H,0.689,0.755,0.726,0.677,0.724,0.469,0.464,0.482,0.492,0.5,0.502,0.348,0.501,0.458,0.682,0.497,0.4,0.83
HOP-62,0.358,0.428,0.374,0.405,0.314,0.327,0.292,0.344,0.334,0.284,0.361,0.203,0.21,0.211,0.316,0.236,0.161,0.254
HCC-78,0.678,0.916,0.641,0.809,0.724,0.916,0.925,0.933,0.92,0.923,,,,0.629,0.666,0.392,0.302,
NCI-H650,0.905,0.931,,1.05,0.96,0.907,0.962,,0.879,0.932,0.322,0.139,0.199,0.722,1.09,0.309,0.217,0.635
NCI-H1563,,,,,,0.772,0.785,0.84,0.725,0.733,0.269,0.497,0.524,,,,,0.608
ABC-1,,,,,,,,,,,0.528,0.352,0.269,,0.718,0.308,0.422,
NCI-H520,0.79,1.02,0.654,0.794,0.45,0.651,0.801,0.831,0.858,0.636,0.257,0.256,0.303,,,,,0.249
NCI-H322M,0.492,0.553,0.534,0.565,0.553,0.642,0.68,0.662,0.673,0.572,0.777,0.529,0.181,0.537,0.553,0.448,0.28,0.844
201T,0.709,0.717,0.776,0.789,0.749,0.374,0.311,0.307,0.358,0.321,0.547,0.313,0.342,0.456,0.416,0.345,0.266,
RERF-LC-KJ,0.846,0.84,0.914,0.85,0.768,0.48,0.462,0.508,0.457,0.482,0.567,0.461,0.224,0.55,1.03,0.568,0.277,0.692
NCI-H1648,0.43,0.459,0.715,0.568,0.378,0.682,0.861,0.531,0.659,0.558,,,,0.562,0.768,0.434,0.466,
NCI-H1623,,,,,,,,,,,0.312,0.279,0.239,,,,,0.412
NCI-H1651,0.793,0.876,0.966,0.893,0.835,0.556,0.701,0.744,0.557,0.59,0.522,0.281,0.2,0.234,0.368,0.172,0.15,0.573
NCI-H2405,0.645,0.681,0.612,0.713,0.581,1.16,1.14,1.11,1.21,1.13,0.606,0.312,0.262,,0.765,0.298,0.197,
NCI-H727,,0.388,0.449,0.372,0.374,,,,,,0.455,0.501,0.494,0.462,0.575,0.406,0.342,0.271
EMC-BAC-2,0.857,0.9,0.939,0.861,0.749,0.441,0.401,0.455,0.428,0.443,0.407,0.347,0.375,0.942,0.696,0.327,0.287,0.681
ChaGo-K-1,0.921,1.01,0.899,0.941,0.906,0.268,0.299,0.249,0.284,0.265,0.332,0.23,0.282,0.584,0.542,0.27,0.204,0.309
LXF-289,0.682,0.743,0.728,0.66,0.66,0.924,0.862,0.939,0.902,0.999,0.288,0.176,0.208,1.01,1.05,0.425,0.192,0.592

Cell Line,relative viability ([1]; first compound 0.1 µM),relative viability ([1]; first compound 0.3162 µM),relative viability ([1]; first compound 1 µM),relative viability ([1]; first compound 3.162 µM),relative viability ([1]; first compound 10 µM),relative viability ([2]; first compound 0.1 µM),relative viability ([2]; first compound 0.3162 µM),relative viability ([2]; first compound 1 µM),relative viability ([2]; first compound 3.162 µM),relative viability ([2]; first compound 10 µM),relative viability ([3]; first compound 2 µM),relative viability ([3]; first compound 6.325 µM),relative viability ([3]; first compound 20 µM),relative viability ([4]; first compound 0.6325 µM),relative viability ([4]; first compound 2 µM),relative viability ([4]; first compound 6.325 µM),relative viability ([4]; first compound 20 µM),relative viability ([3]; first compound 0.6325 µM)
HCC-827,0.501,0.52,0.545,0.574,0.46,0.289,0.267,0.264,0.265,0.253,0.501,0.165,0.104,0.201,0.193,0.203,0.182,0.289
HCC-44,1.11,1.06,1.17,1.15,1.07,0.624,0.652,0.639,0.721,0.69,0.456,0.215,0.225,0.909,1.03,0.798,0.486,
NCI-H2023,0.585,0.643,0.547,0.685,0.528,0.249,0.259,0.286,0.21,0.243,0.256,0.127,0.0843,,,,,0.467
NCI-H1734,0.656,0.758,0.724,0.695,0.622,0.44,0.406,0.426,0.41,0.407,0.203,0.222,0.353,,0.399,0.185,0.139,
PC-14,0.637,0.824,0.82,0.652,0.533,0.132,0.13,0.133,0.151,0.13,0.326,0.321,0.252,0.306,0.431,0.232,0.199,0.11
NCI-H3122,0.244,0.233,0.241,0.252,0.259,0.202,0.216,0.198,0.193,0.19,0.114,0.0849,0.109,0.941,0.34,0.145,0.139,0.0615
SW 1573,0.586,0.591,0.584,0.567,0.39,0.674,0.942,0.991,0.867,0.759,0.269,0.195,0.148,,,,,0.232
NCI-H2342,0.764,,0.842,0.896,0.778,0.757,,0.831,0.812,0.711,0.676,0.572,0.485,0.516,0.514,0.489,0.462,0.756
HCC-15,0.41,0.373,0.37,0.384,0.336,0.215,0.229,0.241,0.217,0.2,0.234,0.121,0.126,1.09,1.08,0.609,0.22,
NCI-H1666,0.831,0.804,0.803,0.845,0.68,0.864,0.914,0.901,0.815,0.844,0.721,0.658,0.331,0.815,0.687,0.552,0.503,0.858
NCI-H661,0.539,0.676,0.564,0.564,0.477,0.874,1.05,0.902,0.952,0.861,0.822,0.41,0.195,,,,,0.848
NCI-H1650,0.556,0.703,0.533,0.712,0.55,0.344,0.37,0.439,0.377,0.322,0.212,0.277,0.271,,,,,
NCI-H2228,0.37,0.55,0.466,0.396,0.306,0.288,0.353,0.302,0.376,0.299,0.177,0.318,0.276,,,,,0.14
SK-LU-1,0.43,0.495,0.492,0.49,0.385,0.969,1.16,1.07,1.04,0.939,0.241,0.244,0.236,,,,,0.202
COR-L23,0.611,0.598,0.672,0.577,0.423,0.203,0.202,0.205,0.22,0.189,0.36,0.223,0.165,,,,,0.235
NCI-H2009,0.28,0.295,0.291,0.313,0.244,1.06,1.17,1.14,1.06,1.08,0.486,0.25,0.252,,,,,0.863
NCI-H1703,,,,,,,,,,,,,,,0.124,0.128,0.181,
COR-L 105,0.404,0.334,0.41,0.414,0.397,1.11,1.12,1.17,1.04,1.03,0.677,0.421,0.411,,,,,0.578
SK-MES-1,0.482,0.597,0.522,0.52,0.474,0.962,1.13,1.12,0.964,0.916,0.521,0.324,0.234,,,,,0.818
HCC-366,0.34,0.253,0.311,0.333,0.212,0.187,0.151,0.154,0.219,0.228,,,,0.182,0.138,0.0668,0.0622,

# From the supplement of paper PMC10307832
